# Measurements reported in patent publication US7704992B2, “Hepatitis C virus inhibitors” (Bristol-Myers Squibb Company, priority 2008, dated 2010).
# pEC50: −log10 of the molar value. Read-outs that look alike come from different tables or passages of the source.
# Test system: HCV 1b-377-neo replicon cells
# Experiment: HCV Replicon assay, HCV 1b genotype
# Assay type: cell-based
# Conditions: for pEC50: class symbol, read-out: EC50 range against HCV 1b
# Method: An HCV Replicon assay was utilized in the present disclosure, and was prepared, conducted and validated as described in commonly owned PCT/US2006/022197 and in O'Boyle et. al. Antimicrob Agents Chemother. 2005 April; 49(4): 1346-53.
# HCV 1b-377-neo replicon cells were used to test the currently described compound series as well as cells resistant to compound A containing a Y2065H mutation in NS5A (described in application PCT/US2006/022197). The compounds tested were determined to have more than 10-fold less inhibitory activity on cells containing the mutation than wild-type cells indicating a related mechanism of action between the two compound series. Thus, the compounds of the present disclosure can be effective to inhibit the function of the HCV NS5A protein and are understood to be as effective in combinations as previously described in application PCT/US2006/022197 and commonly owned WO/04014852. Further, the compounds of the present disclosure can be effective against the HCV 1b genotype. It should also be understood that the compounds of the present disclosure can inhibit multiple genotypes of HCV. […] In one embodiment compounds of the present disclosure are active against the 1a, 1b, 2a, 2b, 3a, 4a, and 5a genotypes.
Compound,pEC50 (Hepatitis C virus),other results
"COC(=O)N[C@H](C(=O)N1CCC[C@H]1c1ncc(-c2ccc3c4ccc(-c5cnc([C@@H]6CCCN6C(=O)[C@@H](NC(=O)OC)[C@@H](C)OC)[nH]5)cc4n(C)c3c2)[nH]1)[C@@H](C)OC [Example 23, methyl ((1S,2R)-2-methoxy-1-(((2S)-2-(5-(7-(2-((2S)-1-(N-(methoxycarbonyl)-O-methyl-L-threonyl)-2-pyrrolidinyl)-1H-imidazol-5-yl)-9-methyl-9H-carbazol-2-yl)-1H-imidazol-2-yl)-1-pyrrolidinyl)carbonyl)propyl) carbamate]",–,pEC50: 10.00 to 12.00
"COCCn1c2cc(-c3cnc([C@@H]4CCCN4C(=O)[C@@H](NC(=O)OC)C(C)C)[nH]3)ccc2c2ccc(-c3cnc([C@@H]4CCCN4C(=O)[C@@H](NC(=O)OC)C(C)C)[nH]3)cc21 [Example 33, methyl ((1S)-1-(((2S)-2-(5-(7-(2-((2S)-1-((2S)-2-((methoxycarbonyl)amino)-3-methylbutanoyl)-2-pyrrolidinyl)-1H-imidazol-5-yl)-9-(2-methoxyethyl)-9H-carbazol-2-yl)-1H-imidazol-2-yl)-1-pyrrolidinyl)carbonyl)-2-methylpropyl)carbamate]",10.00 to 12.00,–
"COC(=O)N[C@@H](C)C(=O)N1CCC[C@H]1c1ncc(-c2ccc3c(c2)COCc2cc(-c4cnc([C@@H]5CCCN5C(=O)[C@H](C)NC(=O)OC)[nH]4)ccc2-3)[nH]1 [Example 9, methyl ((1S)-2-((2S)-2-(4-(9-(2-((2S)-1-(N-(methoxycarbonyl)-L-alanyl)-2-pyrrolidinyl)-1H-imidazol-4-yl)-5,7-dihydrodibenzo[c,e]oxepin-3-yl)-1H-imidazol-2-yl)-1-pyrrolidinyl)-1-methyl-2-oxoethyl)carbamate]",10.00 to 12.00,–
"COC(=O)N[C@H](C(=O)N1CCC[C@H]1c1ncc(-c2ccc3c(c2)C(=O)c2cc(-c4cnc([C@@H]5CCCN5C(=O)[C@@H](NC(=O)OC)C(C)C)[nH]4)ccc2-3)[nH]1)C(C)C [Example 1, methyl ((1S)-1-(((2S)-2-(5-(7-(2-((2S)-1-((2S)-2-((methoxycarbonyl)amino)-3-methylbutanoyl)-2-pyrrolidinyl)-1H-imidazol-5-yl)-9-oxo-9H-fluoren-2-yl)-1H-imidazol-2-yl)-1-pyrrolidinyl)carbonyl)-2-methylpropyl)carbamate]",–,"EC50 (Hepatitis C virus, value in pM, read-out: EC50 value against HCV 1b): 9 pM"
"CCN(CC)C(C(=O)N1CCC[C@H]1c1ncc(-c2ccc3c(c2)COCc2cc(-c4cnc([C@@H]5CCCN5C(=O)C(c5ccccc5)N(CC)CC)[nH]4)ccc2-3)[nH]1)c1ccccc1 (stereo in doubt) [Example 12, (1S,1′S)-2,2′-(5,7-dihydrodibenzo[c,e]oxepine-3,9-diylbis(1H-imidazole-4,2-diyl(2S)-2,1-pyrrolidinediyl))bis(N,N-diethyl-2-oxo-1-phenylethanamine)]",9.00 to 10.00,–
